Source: patent publication US9604945B2, “Sydnonimines-specific dopamine reuptake inhibitors and their use in treating dopamine related disorders” (priority 2007, dated 2017)

Assays:
male Swiss Webster mice = assay: Time-course (8 hr) mouse locomotor activity testing; assay type: in vivo; conditions: for Duration of suppression of spontaneous locomotor activity: FIGS. 6A and 6B; for ID50 (dose producing 1/2 maximal depressant activity): IP; for Planned comparisons against the vehicle group, horizontal activity counts in period of maximal depressant effect: ps<0.05
Description: A dose response study was conducted of locomotor depression induced by the compound of Example 3, according to NIDA's Medication Development Division (MDD) locomoter activity studies standard protocol. The study was conducted using 40 Digiscan locomotor activity testing chambers (40.5×40.5×30.5 cm) housed in sets of two, within sound attenuating chambers. A panel of infrared beams (16 beams) and corresponding photodetectors were located in the horizontal direction along the sides of each activity chamber. A 7.5 W incandescent light above each chamber provided dim illumination. Fans provided an 80 dB ambient noise level within the chamber. Separate groups of 8 non-habituated male Swiss Webster mice (Hsd:ND4, aged 2-3 months) were injected via the intraperitoneal (IP) route with either vehicle (2% methyl cellulose) or the compound of Example 3, above, (3, 10, 30 or 100 mg/kg) twenty minutes prior to locomotor activity testing. Just piro to placement in the apparatus, all mice received a saline injection IP. In all studies, horizontal activity (interruption of photocell beams) was measured for 1 hour within 10 minute periods. Testing was conducted with one mouse per activity chamber.
A time course/dose response study of the locomotor depression inducing effect of the compound of Example 3 was conducted, according to the same MDD locomotor activity studies time course protocol described immediately above, except that groups of 8 mice were injected with either vehicle (2% methylcellulose) or the compound of Example 3 (3, 10, 30 or 100 mg/kg), immediately prior to locomotor activity testing. Behavioral observations were recorded on each mouse at 30, 120 and 480 minutes following 100 mg/kg of the test compound. The vehicle used in this study was 2% methylcellulose.
A separate time course/dose response study of the locomotor depression inducing effect of the compound of Example 6 was also conducted, under the same conditions described above for testing of the compound of Example 3. Additional groups of 8 mice were injected with either vehicle (2% methylcellulose) or the test compound (3, 10, 30 or 100 mg/kg), immediately prior to locomotor activity testing. Behavioral observations were recorded on each mouse at 30, 120 and 480 minutes following 100 mg/kg of the test compound. The vehicle used in this study was 2% methylcellulose.
(§1) Depressant effects of 30 and 100 mg/kg occurred within 10 minutes following injection and lasted 140 to 160 minutes. The period 20-50 min was selected for analysis of dose-response data because this was the time period in which maximal suppression first appeared as a function of dose. The mean average horizontal activity counts/10 min for this 30-min period were fit to a linear function of log10 dose of the descending portion of the dose-effect curve (3 to 100 mg/kg dose range).
as §1, with “of” for “of 30 and”, “lasted” for “lasted 140 to”, “50-80” for “20-50”, “(10” for “(3”

[1] = Tolerability and observable behavior changes; assay type: in vivo; conditions: for Well tolerated dose: in vivo; for Duration of observable changes in behavior: occurred in minutes
mice = assay: Open Field testing; assay type: in vivo, mouse; conditions: for Anxiolytic effects in Open Field testing: FIGS. 9A-9D
Description: Open Field testing was also performed. In carrying out this testing, individually housed male and female mice aged 8-12 weeks were used. The mice were maintained on a reverse L:D/12 p.m.: 12 a.m. cycle in a barrier facility. Food and water were available ad libitum. Testing occurred towards the end of the light cycle between 6-12 a.m. Mice were acclimated to the testing room for at least 30 minutes. The assay was performed in a custom-made Open Field Apparatus. Each chamber was a 50 by 50 cm square. The experiment was recorded and tracked by a tracking system obtained from Viewpoint.
The time and the path length in the center of the open field were determined. The center of the open field is defined as a 13.5×13.5 cm square in the geometric center of the arena. The percent of path in the center is calculated as
[formula] For each mouse, the total path length and path length for 60 minutes at 5 minute intervals was determined as a measure of locomotor activity. In addition, feces produced by each experimental animal during the test was counted. Each chamber was cleaned between individual mouse testing.
Path length for 60 minutes at 5 minute intervals was analyzed by repeat measures using SPSS software. All other parameters were compared using unpaired t-test (GraphPad Prism).

[2] = Plasma drug concentration by different routes of administration; assay type: in vivo, C57BL/6 mice; conditions: for Plasma Concentration: time 0 (pre-dose); for concentration at 5 min / concentration at 15 min / concentration at 30 min / concentration at 60 min / concentration at 120 min / concentration at 240 min / concentration at 480 min: C57BL/6, mouse, plasma
Description: The following materials and methods are provided to facilitate the practice of Example 9, in which drug concentration in certain biological samples were assessed using different routes of administration.
Parameters Used in Dosing and Drug Administration of the Compound of Example 3:
Adult C57BL/6 mice (preferred 16 weeks old).
Three mice per time point. If all three routes are conducted in same day, one group of pre-dose is efficient.
In the studies using adult C57BL/6 mice (preferably approximately 16 weeks old), dosing and drug administration parameters for the compound of Example 3 were explored. Clearly, the compound is suitable for oral administration and lasts in the plasma up to 2-3 hours.

## Cc1ccc(C[n+]2[cH-]/c(=N\C(=O)Nc3ccccc3)on2)cc1 [Example 3, N-phenylcarbamoyl-3-(p-methyl-benzyl)-sydnonimine]
Male Swiss Webster mice; 30 and 100 mg/kg IP
  Onset of depressant effects following injection: ≤ 10 min
Male Swiss Webster mice
  Duration of suppression of spontaneous locomotor activity: at least 3 hours
  Planned comparisons against the vehicle group, horizontal activity counts in period of maximal depressant effect: significant depressant effect for 30 and 100 mg/kg
Male Swiss Webster mice; period 20-50 min, 3 to 100 mg/kg dose range
  ID50 (dose producing 1/2 maximal depressant activity): ~24.0 mg/kg
[1]
  Dosage above which subjects became lethargic: above 125 kg/mg
  Well tolerated dose: at least 200 mg/kg
  Duration of observable changes in behavior: 2 to 3 h
mice; 10 and 90 mg/kg, FIG. 8
  Locomotor activity in open field testing: effective to reduce locomotor activity
mice; 10 and 90 mg/kg
  Anxiolytic effects in Open Field testing: demonstrable anxiolytic effects
mice; mouse, in vivo
  Number of fecal boli in open field testing: no effect
[2]; 10 mg/kg (IP)
  Plasma Concentration: 21.00 ng/mL
[2]; 10 mg/kg (IV)
  Plasma Concentration: 18.33 ng/mL
  concentration at 5 min: 2090 ng/mL
  concentration at 15 min: 2110 ng/mL
  concentration at 30 min: 915 ng/mL
  concentration at 60 min: 417 ng/mL
  concentration at 120 min: 139 ng/mL
  concentration at 240 min: 47.4 ng/mL
  concentration at 480 min: 94.6 ng/mL
[2]; 10 mg/kg (PO)
  Plasma Concentration: 10.60 ng/mL
  concentration at 5 min: 218 ng/mL
  concentration at 15 min: 115 ng/mL
  concentration at 30 min: 59.9 ng/mL
  concentration at 60 min: 21.3 ng/mL
  concentration at 120 min: 17.6 ng/mL
  concentration at 240 min: 15.8 ng/mL
  concentration at 480 min: 14.3 ng/mL
[2]; 30 mg/kg (PO)
  Plasma Concentration: 8.93 ng/mL
  concentration at 5 min: 838 ng/mL
  concentration at 15 min: 670 ng/mL
  concentration at 30 min: 375 ng/mL
  concentration at 60 min: 114 ng/mL
  concentration at 120 min: 41.9 ng/mL
  concentration at 240 min: 48.5 ng/mL
  concentration at 480 min: 13.4 ng/mL
[2]; intraperitoneal, 10 mg/kg (IP)
  concentration at 5 min: 973 ng/mL
  concentration at 15 min: 316 ng/mL
  concentration at 30 min: 544 ng/mL
  concentration at 60 min: 115 ng/mL
  concentration at 120 min: 82.5 ng/mL
  concentration at 240 min: 34 ng/mL
  concentration at 480 min: 31.2 ng/mL
[2]; mouse, in vivo
  Time the compound lasts in the plasma: 2 to 3 h

## O=C(/N=c1\[cH-][n+](CCCc2ccccc2)no1)Nc1ccccc1 [Example 6, N-phenylcarbamoyl-3-(phenylpropyl)-sydnonimine]
Male Swiss Webster mice; 100 mg/kg IP
  Duration of depressant effects: 160 min
  Onset of depressant effects following injection: ≤ 10 min
Male Swiss Webster mice
  Duration of suppression of spontaneous locomotor activity: at least 3 hours
  Planned comparisons against the vehicle group, horizontal activity counts in period of maximal depressant effect: significant depressant effect for 100 mg/kg
Male Swiss Webster mice; period 50-80 min, 10 to 100 mg/kg dose range
  ID50 (dose producing 1/2 maximal depressant activity): ~30.2 mg/kg
[1]; higher concentrations
  Lethargic effect (compared with Example 3): this effect was reduced
[1]
  Well tolerated dose: at least 200 mg/kg
  Duration of observable changes in behavior: 2 to 3 h
mice; 10 and 90 mg/kg
  Anxiolytic effects in Open Field testing: induces anxiolytic effects
[2]; oral, 10 and 30 mg/kg, FIG. 3
  Oral bioavailability compared to Example 3: relatively higher oral bioavailability
[2]; same dosage, different routes, FIGS. 2A-2D
  Bioavailability in the plasma and brain compared to Example 3: slightly better bioavailability
